O=C1Nc2ccccc2C1=O
Settings	solubility (mole fraction)
in 1,4-dioxane, 293.15 K	0.0162
in 1,4-dioxane, 298.15 K	0.0188
in 1,4-dioxane, 303.15 K	0.0218
in 1,4-dioxane, 308.15 K	0.0252
in 1,4-dioxane, 313.15 K	0.029
in 1,4-dioxane, 318.15 K	0.0331
in 1,4-dioxane, 323.15 K	0.0378
in 1,4-dioxane, 328.15 K	0.0428
in 1,4-dioxane, 333.15 K	0.0484
in DMF, 283.15 K	0.127
in DMF, 288.25 K	0.135
in DMF, 293.25 K	0.143
in DMF, 298.15 K	0.151
in DMF, 303.15 K	0.16
in DMF, 308.25 K	0.17
in DMF, 313.25 K	0.179
in DMF, 318.45 K	0.19
in DMF, 323.15 K	0.198
in DMF, 328.15 K	0.209
in DMF, 333.15 K	0.218
in THF, 289.85 K	0.0197
in THF, 297.15 K	0.0234
in THF, 301.15 K	0.0254
in THF, 305.15 K	0.028
in THF, 308.95 K	0.0301
in THF, 314.05 K	0.0335
in THF, 318.35 K	0.0367
in THF, 323.15 K	0.0399
in acetone, 287.25 K	0.0109
in acetone, 292.75 K	0.0125
in acetone, 298.45 K	0.014
in acetone, 302.65 K	0.0158
in acetone, 308.35 K	0.0174
in acetone, 312.65 K	0.0193
in acetone, 318.15 K	0.0217
in acetone, 323.35 K	0.0241
in acetonitrile, 283.15 K	0.0042
in acetonitrile, 288.35 K	0.00498
in acetonitrile, 294.65 K	0.00608
in acetonitrile, 298.15 K	0.00675
in acetonitrile, 303.15 K	0.00789
in acetonitrile, 308.15 K	0.00893
in acetonitrile, 313.15 K	0.0103
in acetonitrile, 318.15 K	0.0118
in acetonitrile, 323.15 K	0.0136
in dichloromethane, 278.15 K	0.000788
in dichloromethane, 282.35 K	0.000876
in dichloromethane, 286.25 K	0.000982
in dichloromethane, 290.55 K	0.0011
in dichloromethane, 293.15 K	0.0012
in dichloromethane, 296.95 K	0.00132
in dichloromethane, 299.85 K	0.00141
in dichloromethane, 303.25 K	0.00153
in dichloromethane, 307.65 K	0.0017
in ethyl acetate, 288.15 K	0.00421
in ethyl acetate, 293.35 K	0.0048
in ethyl acetate, 298.25 K	0.00565
in ethyl acetate, 303.65 K	0.00637
in ethyl acetate, 308.65 K	0.00733
in ethyl acetate, 313.35 K	0.00822
in ethyl acetate, 318.15 K	0.0092
in ethyl acetate, 323.35 K	0.0103
in toluene, 288.15 K	0.000588
in toluene, 293.15 K	0.000637
in toluene, 298.15 K	0.000685
in toluene, 303.15 K	0.000714
in toluene, 308.15 K	0.000771
in toluene, 313.15 K	0.000819
in toluene, 318.15 K	0.000884
in toluene, 323.15 K	0.000926

— BigSolDB 2.1
